# Reference: patent US11555212B2, “Process for the production of sulfated phenolic compounds using modified Escerichia coli” (CysBio ApS, priority 2016, dated 2023)
# Experiments:
# [1] = system: SULT1E1 from chicken (Gallus gallus domesticus); assay: Percent reduction in concentration of phenolic compounds by E. coli expressing a sulfotransferase, compared to control strain; assay type: cell-based; details: E. coli BL21(DE3)pLysS expressing SULT1E1 chicken, compared to the control strain; M9, 1 mM IPTG, single substrate at start concentration of Table 14; overnight 37° C.
# [2] = biological target: T1, SULT1A1 from rat (Rattus norvegicus) (Rattus norvegicus, UniProt P17988); assay: as above; assay type: cell-based; details: compared to the control strain, M9, 1 mM IPTG, single substrate at start concentration of Table 14, overnight 37° C.; for Percent reduction in concentration, SULT1A1 + CysDNCQ: E. coli BL21(DE3)pLysS expressing SULT1A1 rat + CysDNCQ; for Percent reduction in concentration, SULT1A1: E. coli BL21(DE3)pLysS expressing SULT1A1 rat
# T1 construct: 1, 3, 4, 5, and 6 were cloned amplified from liver tissue cDNA; expressed in transfected cells
# Method: (§1) The concentration of p-courmaric acid (pHCA) and zosteric acid in the supernatant was quantified by high performance liquid chromatography (HPLC) and compared to chemical standards. HPLC was done on a Thermo setup using a HS-F5 column and mobile phases: 5 mM ammonium formate pH 4.0 (A) and acetonitrile (B) at 1.5 mL min-1, using a gradient elution starting at 5% B. From 0.5 min after injection to 7 min, the fraction of B increased linearly from 5% to 60%, and between 9.5 min and 9.6 the fraction of B decreased back to 5%, and remaining there until 12 min. pHCA and zosteric acid were quantified by measuring absorbance at 277 nm.
# To further test the range of substrates that can be sulfated, we used strains carrying plasmids expressing SULT1A1 from rat (Rattus norvegicus) and SULT1E1 from chicken (Gallus gallus domesticus) (Example 1) cloned into the expression vector pETDuet-1, and cysDNCQ from E. coli cloned into expression vector pRSFDuet-1 (Example 2). The plasmids were introduced into the E. coli expression strain BL21(DE3)pLysS as described previously, selecting for transformants with appropriate antibiotics, namely 34 μg mL^−1 chloramphenicol for pLysS, 100 μg mL^−1 ampicillin for pETDuet-1-based vectors, and 100 μg mL^−1 kanamycin for pRSFDuet-1-based vectors. […] A control strain without a sulfotransferase gene or cysDNCQ operon was also examined.
# The strains were precultured in 2×YT medium with appropriate antibiotics. 10 μL of these precultures were used to inoculate M9 media with 1 mM IPTG and none or a single substrate for sulfation. After overnight growth at 37° C., 300 rpm the supernatants were withdrawn and examined by HPLC as described in Example 1. The compounds were detected by UV absorbance.
# [3] = biological target: T2, SULT1A1 from Rattus norvegicus (Rattus norvegicus, UniProt P17988); assay: Percent reduction of phenolic compounds by E. coli KRX expressing a sulfotransferase; assay type: cell-based; details: M9, 0.1 mM IPTG, 0.1% rhamnose, compound 50 μM, overnight 37° C.
# T2 construct: 1, 3, 4, 5, and 6 were cloned amplified from liver tissue cDNA; expressed in transfected cells
# Method: M9 medium containing 0.2% glucose, 0.1 mM IPTG, 0.1% rhamnose, and 100 μg/mL ampicillin was prepared.
# The strains described above were grown in 2×YT medium with 100 μg/mL ampicillin overnight before their were used to inoculate the media by 50-fold dilution. The cultures were grown overnight with vigorous shaking at 37° C. […] The compounds were detected by UV absorbance except for 4-methylbelliferone, which was measured by fluorescence.
# [4] = system: SULT1A1 Equus caballus; assay: Percent conversion of substrates by E. coli expressing a sulfotransferase; assay type: cell-based; details: E. coli BL21(DE3)pLysS expressing SULT1A1 Equus caballus; M9; pHCA 100 μM, resveratrol 95 μM or kaempferol 87 μM; overnight 37° C.
# Method: as §1
# (§2) Different sulfotransferases were examined for their substrate specificities against three substrates. We tested the sulfotransferases mentioned in example 1, as well as additional ones. The genes encoding these were cloned as described in example 1 using the primers shown in the table below from cDNA libraries of the respective organisms, except for the SULT1A1 from rat (Rattus norvegicus) codon-optimized for E. coli (described above). The resulting vectors were transformed into BL21(DE3)pLysS.
# (§3) The resulting strains were grown in M9 medium containing either 100 μM pHCA, 95 μM resveratrol or 87 μM kaempferol. The cultures were grown overnight at 37° C., 300 rpm. The following day the supernatants were isolated and examined by HPLC as described in example 1.
# [5] = biological target: T3, SULT1A1 Canis lupus familiaris (Canis lupus familiaris, UniProt Q29476); assay: as above; assay type: cell-based; details: E. coli BL21(DE3)pLysS expressing SULT1A1 Canis lupus familiaris; M9; pHCA 100 μM, resveratrol 95 μM or kaempferol 87 μM; overnight 37° C.
# T3 construct: 1, 3, 4, 5, and 6 were cloned amplified from liver tissue cDNA; expressed in transfected cells; host or cells: E. coli BL21(DE3)pLysS
# Method: as §1, §2, §3
# [6] = system: SULT1E1 Gallus gallus domesticus; assay: as above; assay type: cell-based; details: E. coli BL21(DE3)pLysS expressing SULT1E1 Gallus gallus domesticus; M9; pHCA 100 μM, resveratrol 95 μM or kaempferol 87 μM; overnight 37° C.
# Method: as §1, §2, §3
# [7] = system: SULT1A1 Sus scrofa domesticus; assay: as above; assay type: cell-based; details: E. coli BL21(DE3)pLysS expressing SULT1A1 Sus scrofa domesticus; M9; pHCA 100 μM, resveratrol 95 μM or kaempferol 87 μM; overnight 37° C.
# Method: as §1, §2, §3
# [8] = biological target: T4, SULT1A1 human (Homo sapiens, UniProt P50225, V223M); assay: as above; assay type: cell-based; details: E. coli BL21(DE3)pLysS expressing SULT1A1 human; M9; pHCA 100 μM, resveratrol 95 μM or kaempferol 87 μM; overnight 37° C.
# T4 construct: expressed in transfected cells; host or cells: E. coli BL21(DE3)pLysS
# Method: as §1, §2, §3
# [9] = system: SULT1C1 Gallus gallus domesticus; assay: as above; assay type: cell-based; details: E. coli BL21(DE3)pLysS expressing SULT1C1 Gallus gallus domesticus; M9; pHCA 100 μM, resveratrol 95 μM or kaempferol 87 μM; overnight 37° C.
# Method: as §1, §2, §3
# [10] = biological target: T5, SULT1A1 Rattus norvegicus (Rattus norvegicus, UniProt P17988); assay: as above; assay type: cell-based; details: M9, pHCA 100 μM, resveratrol 95 μM or kaempferol 87 μM, overnight 37° C.
# T5 construct: 1, 3, 4, 5, and 6 were cloned amplified from liver tissue cDNA; expressed in transfected cells
# Method: as §1, §2, §3
# [11] = biological target: T6, D. rerio SULT1ST1 (Danio rerio, UniProt Q6PH37); assay: Percent reduction of compounds by E. coli KRX expressing distantly related sulfotransferases; assay type: cell-based; details: 100 μM resveratrol, 20 μM kaempferol or 3-hydroxy-4-methoxycinnamic acid
# T6 construct: expressed in transfected cells; host or cells: E. coli KRX (Promega), vector pETDuet-1
# T6 sequence (Q6PH37 1-299): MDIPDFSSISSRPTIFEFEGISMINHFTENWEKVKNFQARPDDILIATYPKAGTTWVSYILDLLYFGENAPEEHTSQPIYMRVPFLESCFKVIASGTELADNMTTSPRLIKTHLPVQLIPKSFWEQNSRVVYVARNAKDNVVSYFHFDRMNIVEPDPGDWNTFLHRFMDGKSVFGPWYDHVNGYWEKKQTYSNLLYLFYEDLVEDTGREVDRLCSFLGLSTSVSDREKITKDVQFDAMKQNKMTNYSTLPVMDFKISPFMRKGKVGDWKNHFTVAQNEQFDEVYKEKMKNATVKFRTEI
# [12] = system: H. ochraceum DSM 14365 Hoch_6098; assay: as above; assay type: cell-based, Haliangium ochraceum DSM 14365; details: E. coli KRX expressing H. ochraceum DSM 14365 Hoch_6098; 100 μM resveratrol, 20 μM kaempferol or 50 μL 3-hydroxy-4-methoxycinnamic acid
# Source text: The gene (sequence SEQ ID NO: 104) encoding Hoch_6098 (sequence SEQ ID NO: 105) from the bacterium Haliangium ochraceum DSM 14365 was codon-optimized for E. coli and synthesized as in example 1.
# (§4) The genes were cloned into the vector pETDuet-1 as described in Example 1, and the resulting vectors were transformed into E. coli KRX (obtained from Promega).
# [13] = system: D. rerio SULT6B1; assay: as above; assay type: cell-based, Danio rerio; details: 100 μM resveratrol, 20 μM kaempferol or 3-hydroxy-4-methoxycinnamic acid
# Source text: The gene (sequence SEQ ID NO: 102) encoding SULT6B1 (sequence SEQ ID NO: 103) from Danio rerio was codon-optimized for E. coli and synthesized as in example 1.
# as §4
# [14] = E. coli BL21(DE3)pLysS expressing SULT1A1 Rattus norvegicus (Codon-optimized for E. coli)
# [15] = E. coli BL21(DE3)pLysS expressing SULT1A1 Rattus norvegicus
# T1 sequence (P17988 whole entry): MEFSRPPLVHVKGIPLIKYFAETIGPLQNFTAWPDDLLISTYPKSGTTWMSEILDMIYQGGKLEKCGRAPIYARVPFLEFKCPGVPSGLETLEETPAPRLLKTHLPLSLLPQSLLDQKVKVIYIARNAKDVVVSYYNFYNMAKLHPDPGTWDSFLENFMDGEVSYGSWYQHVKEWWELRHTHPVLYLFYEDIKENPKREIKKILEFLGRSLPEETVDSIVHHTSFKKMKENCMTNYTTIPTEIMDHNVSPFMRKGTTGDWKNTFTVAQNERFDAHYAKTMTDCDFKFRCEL
# T2 sequence (P17988 whole entry): as above
# T5 sequence (P17988 whole entry): as above
# T3 sequence (Q29476 whole entry): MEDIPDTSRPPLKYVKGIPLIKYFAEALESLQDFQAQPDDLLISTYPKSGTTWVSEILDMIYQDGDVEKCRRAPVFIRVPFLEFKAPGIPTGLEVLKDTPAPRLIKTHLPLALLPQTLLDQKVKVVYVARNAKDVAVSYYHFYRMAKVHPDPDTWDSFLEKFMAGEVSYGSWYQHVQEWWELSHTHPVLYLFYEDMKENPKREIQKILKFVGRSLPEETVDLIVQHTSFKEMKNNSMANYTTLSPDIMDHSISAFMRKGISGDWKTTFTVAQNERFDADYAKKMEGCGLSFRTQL
# T4 sequence (P50225 whole entry V223M): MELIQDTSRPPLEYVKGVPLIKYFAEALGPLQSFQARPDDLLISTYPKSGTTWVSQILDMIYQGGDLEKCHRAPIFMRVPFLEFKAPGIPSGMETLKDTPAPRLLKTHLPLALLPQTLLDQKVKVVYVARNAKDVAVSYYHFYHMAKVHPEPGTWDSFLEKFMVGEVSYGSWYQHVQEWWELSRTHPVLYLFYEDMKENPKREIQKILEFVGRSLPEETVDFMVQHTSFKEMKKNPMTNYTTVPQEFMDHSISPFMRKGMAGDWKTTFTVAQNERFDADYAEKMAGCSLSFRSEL
Molecule,"Percent reduction in concentration, SULT1E1 [1] [%]","Percent reduction in concentration, SULT1A1 + CysDNCQ [2] [%]","Percent reduction in concentration, SULT1A1 [2] [%]","Percent reduction, SULT1A1 [3] [%]",further results
O=C(O)CCc1ccc(O)cc1 [3-(4-Hydroxyphenyl)propionic acid],1,7,3,,
CCc1ccc(O)cc1 [4-ethylphenol],,,,100,
Cc1cc(=O)oc2cc(O)ccc12 [4-methylbelliferone],,,,100,
C=Cc1ccc(O)cc1 [4-vinylphenol],,,,100,
"COc1cc(/C=C/C(=O)O)cc(OC)c1O [Sinapic acid, sinapic acid]",,,,31,
O=c1cc(-c2ccc(O)cc2)oc2cc(O)cc(O)c12 [Apigenin],98,99,41,,
"CC(=O)Nc1ccc(O)cc1 [4-acetamidophenol, reference compound]",10,30,24,,
"O=C(O)C(=O)Cc1ccc(O)cc1 [4-Hydroxyphenylpyruvic acid, 4-hydroxyphenylpyruvic acid]",100,64,47,,
O=c1cc(-c2ccc(O)c(O)c2)oc2cc(O)cc(O)c12 [Luteolin],0,37,27,,
O=c1c(O)c(-c2ccc(O)c(O)c2)oc2cc(O)ccc12 [fisetin],98,100,98,,
O=c1c(O)c(-c2ccc(O)c(O)c2)oc2cc(O)cc(O)c12 [Quercetin],74,81,75,,
Oc1ccc(C=Cc2cc(O)cc(O)c2)cc1 [resveratrol],,,,,"Percent conversion of the substrate [4]: 100%; Percent conversion of the substrate [5]: 61%; Percent conversion of the substrate [6]: 100%; Percent conversion of the substrate [7]: 88%; Percent conversion of the substrate [8]: 36%; Percent conversion of the substrate [9]: 100%; Percent conversion of the substrate [10, 14]: 58%; Percent conversion of the substrate [10, 15]: 93%; Percent reduction [11]: 80%; Percent reduction [12]: 7%"
4-ethylguaiacol,,,,50,
"O=c1c(O)c(-c2ccc(O)cc2)oc2cc(O)cc(O)c12 [kaempferol, Kaempferol]",,,,,"Percent reduction [13]: 44%; Percent conversion of the substrate [4]: 96%; Percent conversion of the substrate [5]: 60%; Percent conversion of the substrate [6]: 47%; Percent conversion of the substrate [7]: 45%; Percent conversion of the substrate [8]: 97%; Percent conversion of the substrate [9]: 80%; Percent conversion of the substrate [10, 14]: 38%; Percent conversion of the substrate [10, 15]: 95%; Percent reduction [12]: 100%"
O=C1C[C@@H](c2ccc(O)cc2)Oc2cc(O)cc(O)c21 [Naringenin],,,,60,
O=[N+]([O-])c1ccc(O)cc1 [4-nitrophenol],,,,30,
"COc1cc(/C=C/C(=O)O)ccc1O [Ferulic acid, ferulic acid]",67,100,72,,
COc1ccc(C=CC(=O)O)cc1O [3-Hydroxy-4-methoxycinnamic acid],,62,51,,
"COc1cc(C(=O)O)ccc1O [Vanillic acid, vanillic acid]",0,39,33,,
O=C(O)c1ccc(O)cc1 [4-hydroxybenzoic acid],4,6,5,,
